Measurements published in ChEMBL document CHEMBL3885861, “Open TG-GATES”.

Organism: Rattus norvegicus
Test: Open TG-GATES - Regimen: Daily Repeat
Type: toxicity, organism-based, Sprague-Dawley
Parameters: regimen Daily Repeat, gender Male, age 6 weeks
Conditions: in vivo, po, 100 mg/kg, route gavage, dose level Low; for APTT / Bas / Eos / Fbg / Hb / Ht / Lym / MCH / MCHC / MCV / Mono / Neu / PT / Plat / RBC / Ret / WBC: tissue Blood; for KIDNEY_L / KIDNEY_R / KIDNEY_TOTAL: tissue Kidney; for LIVER: tissue Liver; for A/G / ALP / ALT / AST / BUN / CRE / Ca / Cl / DBIL / GLC / IP / K / LDH / Na / PL / RALB / TBIL / TC / TG / TP / gamma-GTP: tissue Plasma

## CC(=O)[C@@]1(O)CC[C@H]2[C@@H]3C=C(Cl)C4=CC(=O)CC[C@]4(C)[C@H]3CC[C@@]21C [CHLORMADINONE]
72 h, time 3 day
  TERMINAL_BW: 229.4 g
  APTT: 26.3 s
  Bas: 0%
  Eos: 1%
  Fbg: 311.6 mg/dL
  Hb: 14.1 g/dL
  Ht: 42.6%
  Lym: 80.4%
  MCH: 20.1 pg
  MCHC: 33.1%
  MCV: 60.6 fL
  Mono: 2.4%
  Neu: 15.6%
  PT: 15.3 s
  Plat: 122.1 x10_4/uL
  RBC: 702.6 x10_4/ul
  Ret: 5.8%
  WBC: 113 x10_2/uL
  KIDNEY_L: 1 g
  KIDNEY_R: 1 g
  KIDNEY_TOTAL: 2 g
  LIVER: 10.5 g
  A/G: 1.3
  ALP: 1589 IU/L
  ALT: 54 IU/L
  AST: 72.8 IU/L
  BUN: 15.8 mg/dL
  CRE: 0.2 mg/dL
  Ca: 10.7 mg/dL
  Cl: 106.2 meq/L
  DBIL: 0 mg/dL
  GLC: 192.4 mg/dL
  IP: 7.4 mg/dL
  K: 4.5 meq/L
  LDH: 171.4 IU/L
  Na: 141.6 meq/L
  PL: 160.2 mg/dL
  RALB: 3.1 g/dL
  TBIL: 0.006 mg/dL
  TC: 74 mg/dL
  TG: 129.4 mg/dL
  TP: 5.5 g/dL
  gamma-GTP: 1.6 IU/L
[…], time 7 day
  TERMINAL_BW: 252.1 g
  APTT: 27.7 s
  Bas: 0%
  Eos: 1%
  Fbg: 343.2 mg/dL
  Hb: 14.5 g/dL
  Ht: 43.2%
  Lym: 84%
  MCH: 20.2 pg
  MCHC: 33.6%
  MCV: 60.1 fL
  Mono: 2.2%
  Neu: 12%
  PT: 15.2 s
  Plat: 133.1 x10_4/uL
  RBC: 720.2 x10_4/ul
  Ret: 4.2%
  WBC: 118.1 x10_2/uL
  KIDNEY_L: 1.1 g
  KIDNEY_R: 1.1 g
  KIDNEY_TOTAL: 2.2 g
  LIVER: 11.1 g
  A/G: 1.2
  ALP: 1694.8 IU/L
  ALT: 46.4 IU/L
  AST: 74.6 IU/L
  BUN: 16.2 mg/dL
  CRE: 0.2 mg/dL
  Ca: 10.7 mg/dL
  Cl: 106.8 meq/L
  DBIL: 0 mg/dL
  GLC: 185.4 mg/dL
  IP: 7.2 mg/dL
  K: 4.2 meq/L
  LDH: 148.4 IU/L
  Na: 140.6 meq/L
  PL: 155.2 mg/dL
  RALB: 3.1 g/dL
  TBIL: 0.002 mg/dL
  TC: 67.4 mg/dL
  TG: 200.6 mg/dL
  TP: 5.7 g/dL
  gamma-GTP: 2 IU/L
[…], time 14 day
  TERMINAL_BW: 293.5 g
  APTT: 27.9 s
  Bas: 0%
  Eos: 0.8%
  Fbg: 327.6 mg/dL
  Hb: 14.8 g/dL
  Ht: 43.9%
  Lym: 82%
  MCH: 19.5 pg
  MCHC: 33.8%
  MCV: 57.6 fL
  Mono: 2%
  Neu: 14.6%
  PT: 15.2 s
  Plat: 103.8 x10_4/uL
  RBC: 762.8 x10_4/ul
  Ret: 3.6%
  WBC: 100.2 x10_2/uL
  KIDNEY_L: 1.1 g
  KIDNEY_R: 1.1 g
  KIDNEY_TOTAL: 2.3 g
  LIVER: 12 g
  A/G: 1.2
  ALP: 1379.4 IU/L
  ALT: 44.8 IU/L
  AST: 72.8 IU/L
  BUN: 17.2 mg/dL
  CRE: 0.2 mg/dL
  Ca: 10.3 mg/dL
  Cl: 107.8 meq/L
  DBIL: 0 mg/dL
  GLC: 183.8 mg/dL
  IP: 6.5 mg/dL
  K: 4.2 meq/L
  LDH: 144.4 IU/L
  Na: 142.2 meq/L
  PL: 142.6 mg/dL
  RALB: 3.1 g/dL
  TBIL: 0.006 mg/dL
  TC: 69.2 mg/dL
  TG: 142.2 mg/dL
  TP: 5.7 g/dL
  gamma-GTP: 2 IU/L
[…], time 28 day
  TERMINAL_BW: 362.8 g
  APTT: 27.1 s
  Bas: 0%
  Eos: 1%
  Fbg: 303.4 mg/dL
  Hb: 15.5 g/dL
  Ht: 45.1%
  Lym: 84.8%
  MCH: 19.2 pg
  MCHC: 34.4%
  MCV: 55.7 fL
  Mono: 1.6%
  Neu: 11.4%
  PT: 14.9 s
  Plat: 95 x10_4/uL
  RBC: 809 x10_4/ul
  Ret: 2.2%
  WBC: 106.1 x10_2/uL
  KIDNEY_L: 1.3 g
  KIDNEY_R: 1.3 g
  KIDNEY_TOTAL: 2.5 g
  LIVER: 14.2 g
  A/G: 1.1
  ALP: 1170.6 IU/L
  ALT: 46.8 IU/L
  AST: 66.6 IU/L
  BUN: 18.8 mg/dL
  CRE: 0.2 mg/dL
  Ca: 10.5 mg/dL
  Cl: 105.8 meq/L
  DBIL: 0 mg/dL
  GLC: 192.8 mg/dL
  IP: 6.5 mg/dL
  K: 4.2 meq/L
  LDH: 142 IU/L
  Na: 142 meq/L
  PL: 155.4 mg/dL
  RALB: 3.1 g/dL
  TBIL: 0.006 mg/dL
  TC: 73.2 mg/dL
  TG: 178 mg/dL
  TP: 6 g/dL
  gamma-GTP: 2.2 IU/L
